We go through one molecule from patent publication US20140242174A1, “TREATING COUGH AND TUSSIVE ATTACKS” (VERONA PHARMA PLC, priority 2011, published 2014).

For series [1], the system named is intractable, persistent cough due to interstitial lung disease. The series is described as follows: Double blind, randomized, placebo-controlled, cross-over clinical study of inhaled carcainium chloride. The format is in vivo, human. An excerpt: The aim of the clinical study was to determine the clinical effectiveness and safety of carcainium chloride by the inhaled route in hospital in-patients with intractable, persistent cough due to interstitial lung disease.
A double blind, randomized, placebo-controlled, cross-over study design was used to assess the effect of carcainium chloride as an anti-tussive in patients with interstitial lung disease.
The study was constructed as an adaptive contingency trial. In such a trial the outcome of each “test” of the drug against placebo is scored as either a positive or negative result (i.e. a binary decision, rather than a quantitative measure). Based on the outcome of this “test”, the trial either continues or halts. Patients attended two study visits where they were randomised to receive either: • carcainium chloride at a dose of 1.0 mg/kg on the first study visit followed by placebo (sodium chloride 0.9%) on the second visit; or • placebo (sodium chloride 0.9%) on the first visit followed by carcainium chloride at 1.0 mg/kg on the second visit.
Assessment of each patient was based on the following criteria. • 1 A physician's professional judgment of individual patient responses in a double blind crossover study with carcainium chloride and placebo in terms of anti-tussive action. • 2. Each patient's subjective comfort using a visual analogue scale (VAS), pre- and post-treatment. • 3. Each patient's coughs recorded in pre- and post-treatment periods for active and placebo treatments.
Carcainium chloride is a fine white dry powder and was provided in tightly closed vessels and stored in dark at room temperature upon receipt. The vehicle used for the dilution of carcainium chloride and for the placebo was 0.9% NaCl injection.
Patients were then administered the active or placebo sample, according to the above schedule, as an aerosol generated using an ultrasonic nebulizer (DeVilbiss Ultraneb).
In 8 out of 8 trials, the two physicians acting in concert successfully identified the active treatment carcainium chloride. The outcome of this assessment or “test” after each study treatment administered was either a success in which an ‘anti-tussive’ effect was observed (i.e. positive) or a failure which was defined as no change from baseline or pro-tussive effect (i.e. negative). The clinical investigator decided on a positive or negative outcome for each “test” in a blinded fashion. The statistical significance of this finding is <0.05 by contingency table, 0.05-0.01 by Chi square.
This was assessed on a 0-10 equal interval scale in the pre-drug and post-drug periods for active drug and placebo periods.
The frequency of cough (number per unit time) was recorded using a semi-automated system which records cough epochs (sounds) that are counted by a qualified technician.

Series [2] is described as follows: LC/MS/MS measurement of carcainium chloride concentrations in human plasma. Type of series: in vivo. To be noted: patients administered 1 mg/kg carcainium chloride by inhalation; K2EDTA plasma. On the procedure: A liquid chromatography/tandem mass spectrometry (LC/MS/MS) assay method was developed, qualified, and implemented for the quantitation of carcainium chloride levels in K2EDTA human plasma samples collected from the human clinical study detailed above.
Initially, carcainium chloride was dissolved in deionized water to provide an initial standard or quality control (QC) stock solution at a concentration of 1000 μg/mL. Serial dilutions were carried out with deionized water to provide secondary stock solutions for subsequent preparation of plasma calibration standards or QC samples according to Table 1 below. The internal standard lidocaine was dissolved in deionized water to provide an initial stock solution at a concentration of 1000 μg/mL. The initial internal standard stock solution was then serially diluted with deionized water to provide a spiking stock solution concentration of 50 ng/mL.
A 10 μL aliquot of calibration standard stock solution or QC stock solution was transferred into individual 16×100 mm screw cap glass test tubes. For blank and blank with internal standard samples, 10 μL of deionized water was transferred instead. Human blank K2EDTA plasma (100 μL) was then added to each tube. A 50 μL aliquot of lidocaine internal standard spiking stock solution was transferred to each tube except for blank samples. A 50 μL aliquot of deionized water was added to blank samples. […]

The test system of a further series is irritant-induced cough. To be noted: healthy human volunteers; Phase II; cited from earlier work.

For the molecule `C[N+](C)(CC(=O)Nc1ccccc1)CC(=O)Nc1ccccc1.[Cl-]` [carcainium chloride, N,N-Bis-(phenylcarbamoylmethyl) dimethylammonium chloride], the melting point is 177 to 178 °C. Moreover, in series [1] (1 mg/kg inhaled), the “Drug related adverse side effects in the human clinical study” value is “no significant drug related adverse side effects”. Further, the “Number of coughs recorded electronically (frequency of cough)” value in series [1] (1.0 mg/kg inhaled vs placebo, p=0.0007) is “statistically significant treatment effect”. The “Patient comfort score (VAS, 0-10 scale), pre- and post-drug” value in series [1] (1.0 mg/kg inhaled vs placebo, p=0.0140 by sum of signed ranks) is “statistically significant improvement in patient well-being”. Moreover, the “Physician assessment: trials in which the two physicians successfully identified the active treatment (anti-tussive effect)” value in series [1] (1.0 mg/kg inhaled, ultrasonic nebulizer, vs placebo 0.9% NaCl, blinded, significance <0.05 by contingency table, 0.05-0.01 by Chi square) is listed as 8 out of 8. Moreover, in series [1] (preliminary analysis, all three measures statistically significant), the “Anti-tussive activity, summary of the clinical study” value is given as “marked anti-tussive activity”. For the same molecule, the “Concentration of carcainium chloride in plasma samples” value in series [2] was 1 to 50 ng/mL. In the series on irritant-induced cough, the “Ability to inhibit cough (increase of the amount of irritant required to induce cough)” value is “no statistically significant ability to inhibit cough”.
